Measured values taken from US7906541B2, “Process to prepare new substituted 1H-benzo[d]imidazol-2(3H)-ones, new intermediates and their use as BACE 1 inhibitors” (Universite Paul Cezanne-Aix Marseille III, priority 2008, dated 2011).

Row | Compound | melting point
1 | CS/C=C(/C)n1c(=O)n(C)c2ccccc21 [Example 1, 1-methyl-3-[(1Z)-1-(methylsulfanyl)prop-1-en-2-yl]-1,3-dihydro-2H-benzimidazol-2-one] | 66 °C (dec.)
2 | CS/C=C(/C)n1c(=O)n(Cc2ccccc2)c2ccccc21 [Example 2, 1-benzyl-3-[(1Z)-1-(methylsulfanyl)prop-1-en-2-yl]-1,3-dihydro-2H-benzimidazol-2-one] | 227 °C (dec.)
3 | CCn1c(=O)n(/C(C)=C\SC)c2ccccc21 [Example 5, 1-ethyl-3-[(1Z)-1-(methylsulfanyl)prop-1-en-2-yl]-1,3-dihydro-2H-benzimidazol-2-one] | 74 °C
4 | CS/C=C(/C)n1c(=O)n(Cc2cc(C(F)(F)F)cc(C(F)(F)F)c2)c2ccccc21 [Example 6, 1-[3,5-bis(trifluoromethyl)benzyl]-3-[(1Z)-1-(methylsulfanyl)prop-1-en-2-yl]-1,3-dihydro-2H-benzimidazol-2-one] | 148 °C
5 | CS/C=C(/C)n1c(=O)n(C)c2ccc(C(F)(F)F)cc21 [Example 9, 1-methyl-3-[(1Z)-1-(methylsulfanyl)prop-1-en-2-yl]-5-(trifluoromethyl)-1,3-dihydro-2H-benzimidazol-2-one] | 194 °C
6 | CS/C=C(/C)n1c(=O)n(C)c2cc(F)ccc21 [Example 10, 5-fluoro-3-methyl-1-[(1Z)-1-(methylsulfanyl)prop-1-en-2-yl]-1,3-dihydro-2H-benzimidazol-2-one] | 110 °C
7 | O=c1[nH]c2ccccc2n1Cc1ccccc1 [Example 11, 1-benzyl-1,3-dihydro-2H-benzimidazol-2-one] | 194 °C
